Source: patent US20020026052A1, “3-cyanoquinolines, 3-cyano-1,6-naphthyridines, and 3-cyano-1,7-naphthyridines as protein kinase inhibitors” (American Home Products Corporation, priority 2000, published 2002)
“And” between values parts separate entries of the source, which are not always exact repeats. Equal entries are not always repeated.

Key:
[1] = target: Rat2 fibroblasts stably transformed with v-Src/Hu c-Src fusion gene (Homo sapiens, UniProt P12931, cells depend on it, form not given); assay: Anchorage Independent Src-transformed Fibroblast Proliferation Assay; assay type: cell-based, Rat; conditions: suspension growth, MTS reagent on Day 5; read-out: anch-indep src-tx fib IC50
Protocol: Anchorage Independent Src-transformed Fibroblast Proliferation Assay
Rat2 fibroblasts stably transformed with a plasmid containing a CMV promotor controlled v-Src/Hu c-Src fusion gene in which the catalytic domain of human c-Src was inserted in place of the v-Src catalytic domain in the v-Src gene are used for the measurement of src dependent suspension growth. […] Multiple entries for a given compound indicate that it was tested multiple times.

Chain of Rat2 fibroblasts stably transformed with v-Src/Hu c-Src fusion gene (P12931 whole entry, change not shown, the tested form may be a part): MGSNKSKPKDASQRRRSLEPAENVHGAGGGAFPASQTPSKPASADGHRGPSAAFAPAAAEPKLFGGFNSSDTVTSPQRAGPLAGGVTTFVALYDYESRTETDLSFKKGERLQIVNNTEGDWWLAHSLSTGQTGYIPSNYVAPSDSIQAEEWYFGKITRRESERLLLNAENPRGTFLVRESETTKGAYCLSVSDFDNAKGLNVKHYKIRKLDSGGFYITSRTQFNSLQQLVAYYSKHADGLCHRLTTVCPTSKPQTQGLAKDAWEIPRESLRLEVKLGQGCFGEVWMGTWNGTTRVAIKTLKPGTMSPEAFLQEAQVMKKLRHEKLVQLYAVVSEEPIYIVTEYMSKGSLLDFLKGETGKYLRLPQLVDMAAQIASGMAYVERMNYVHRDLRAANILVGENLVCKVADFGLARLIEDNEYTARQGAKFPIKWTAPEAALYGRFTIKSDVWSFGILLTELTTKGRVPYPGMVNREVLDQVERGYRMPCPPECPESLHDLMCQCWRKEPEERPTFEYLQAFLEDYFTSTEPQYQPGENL

| Compound | melting point [°C] | GI50 [1] |
| --- | --- | --- |
| N#Cc1cnc2cc(C=CCCCCN3CCOCC3)ccc2c1Nc1ccc(Cl)cc1Cl (mixture of isomers) [Example 16, 4-(2,4-Dichloroanilino)-7-[(E/Z)-6-(4-morpholinyl)-1-hexenyl]-3-quinolinecarbonitrile] | 128 to 130 | > 10000 nM |
| N#Cc1cnc2cc(C#CCCCN3CCOCC3)ccc2c1Nc1ccc(Cl)cc1Cl [Example 11, 4-(2,4-Dichloroanilino)-7-[5-(4-morpholinyl)-1-pentynyl]-3-quinolinecarbonitrile] | 131 to 133 | > 10000 nM |
| N#Cc1cnc2cc(-c3ccc(CN4CCOCC4)o3)ccc2c1Nc1ccc(Cl)cc1Cl [Example 13, 4-(2,4-Dichloroanilino)-7-[5-(4-morpholinylmethyl)-2-furyl]-3-quinolinecarbonitrile] | 118 to 120 | 1510 nM and 1590 nM |
| CN(C)CC#Cc1ccc2c(Nc3ccc(Cl)cc3Cl)c(C#N)cnc2c1 [Example 15, 4-(2,4-dichloroanilino)-7-[3-(dimethylamino)-1-propynyl]-3-quinolinecarbonitrile] | 144 to 145 | > 10000 nM |
| COc1cc(Nc2c(C#N)cnc3cc(-c4cc(CN5CCOCC5)c(CN5CCOCC5)s4)ccc23)c(Cl)cc1Cl [Example 20, 7-[4,5-Bis(4-morpholinylmethyl)-2-thienyl]-4-(2,4-dichloro-5-methoxyanilino)-3-quinolinecarbonitrile] | 118 to 125 | 40 nM and 30 nM |
| COc1cc(Nc2c(C#N)cnc3cc(-c4ccc(CN5CCOCC5)cc4)ccc23)c(Cl)cc1Cl [Example 29, 4-(2,4-Dichloro-5-methoxyanilino)-7-[4-(4-morpholinylmethyl)phenyl]-3-quinolinecarbonitrile] |  | 540 nM and 500 nM |
| CCN1CCN(CCc2ccc(-c3ccc4c(Nc5cc(OC)c(Cl)cc5Cl)c(C#N)cnc4c3)cc2)CC1 [Example 32, 4-(2,4-Dichloro-5-methoxyanilino)-7-{4-[2-(4-ethyl-1-piperazinyl)ethyl]phenyl}-3-quinolinecarbonitrile] |  | 2000 nM and 1900 nM |
| COc1cc(Nc2c(C#N)cnc3cc(-c4ccc(CN5CCOCC5)cc4)c(OC)cc23)c(Cl)cc1Cl [Example 37, 4-(2,4-Dichloro-5-methoxyanilino)-6-methoxy-7-[4-(4-morpholinylmethyl)phenyl]-3-quinolinecarbonitrile] |  | 1590 nM and 1490 nM |
| COc1cc(Nc2c(C#N)cnc3cc(-c4cccc(CCN5CCOCC5)c4)c(OC)cc23)c(Cl)cc1Cl [Example 38, 4-(2,4-Dichloro-5-methoxyanilino)-6-methoxy-7-{3-[2-(4-morpholinyl)ethyl]phenyl}-3-quinolinecarbonitrile] |  | 12700 nM and 10600 nM |
| COc1cc(Nc2c(C#N)cnc3cc(-c4cscc4CN4CCOCC4)ccc23)c(Cl)cc1Cl [Example 65, 4-(2,4-Dichloro-5-methoxyanilino)-7-[4-(4-morpholinylmethyl)-3-thienyl]-3-quinolinecarbonitrile] |  | > 10000 nM |
| COc1cc(Nc2c(C#N)cnc3cc(-c4ccsc4CN4CCOCC4)ccc23)c(Cl)cc1Cl [Example 66, 4-(2,4-Dichloro-5-methoxyanilino)-7-[2-(4-morpholinylmethyl)-3-thienyl]-3-quinolinecarbonitrile] |  | > 10000 nM |
| COc1cc(Nc2c(C#N)cnc3cc(-c4ccc(CNCCS(=O)(=O)c5ccccc5)n4C)ccc23)c(Cl)cc1Cl [Example 72, 4-(2,4-dichloro-5-methoxyanilino)-7-[1-methyl-5-({[2-(phenylsulfonyl)ethyl]amino}methyl)-1H-pyrrol-2-yl]-3-quinolinecarbonitrile] |  | > 10000 nM |
| COc1cc(Nc2c(C#N)cnc3cc(C#Cc4ccccn4)ccc23)c(Cl)cc1Cl [Example 91, 4-(2,4-Dichloro-5-methoxyanilino)-7-[2-(2-pyridinyl)ethynyl]-3-quinolinecarbonitrile] |  | > 10000 nM |
| COc1cc(Nc2c(C#N)cnc3cc(-c4ccccc4C=O)ccc23)c(Cl)cc1Cl [Example 114, 4-(2,4-Dichloro-5-methoxyanilino)-7-(2-formylphenyl)-3-quinolinecarbonittile] |  | > 10000 nM |
| COc1cc(Nc2c(C#N)cnc3cc(-c4ccccc4CN4CCOCC4)ccc23)c(Cl)cc1Cl [Example 115, 4-(2,4-Dichloro-5-methoxyanilino)-7-[2-(4-morpholinylmethyl)phenyl]-3-quinolinecarbonitrile] |  | > 10000 nM |
| COc1cc(Nc2c(C#N)cnc3cc(/C=C/c4ccccc4)ccc23)c(Cl)cc1Cl [Example 139, 4-(2,4-Dichloro-5-methoxyanilino)-7-[(E)-2-phenylethenyl]-3-quinolinecarbonitrile] |  | > 10000 nM |
| COc1cc(Nc2c(C#N)cnc3cc(C#Cc4ccccc4)ccc23)c(Cl)cc1Cl [Example 140, 4-(2,4-Dichloro-5-methoxyanilino)-7-(2-phenylethynyl)-3-quinolinecarbonitrile] |  | > 10000 nM |
| COc1cc(Nc2c(C#N)cnc3cc(-c4cnc(CN5CCN(C)CC5)n4C)c(OC)cc23)c(Cl)cc1Cl [Example 233, 4-(2,4-Dichloro-5-methoxyanilino)-6-methoxy-7-{1-methyl-2-[(4-methyl-1-piperazinyl)methyl]-1H-imidazol-5-yl}-3-quinolinecarbonitrile] | 234 to 236 |  |

The remaining lines, values ahead:

| melting point [°C] | GI50 [1] | Compound |
| --- | --- | --- |
| 70 to 72 | > 10000 nM | N#Cc1cnc2cc(C=CCCCN3CCOCC3)ccc2c1Nc1ccc(Cl)cc1Cl (mixture of isomers) [Example 12, 4-(2,4-Dichloroanilino)-7-[(E/Z)-5-(4-morpholinyl)-1-pentenyl]-3-quinoline-carbonitrile] |
| 224 to 229 | 200 nM | COc1cc(Nc2c(C#N)cnc3cc(-c4ccc(C5OCCO5)o4)ccc23)c(Cl)cc1Cl [Example 5, 4-(2,4-dichloro-5-methoxyanilino)-7-[5-(1,3-dioxolan-2-yl)-2-furyl]-3-quinolinecarbonitrile] |
| > 250 | 1600 nM | COc1cc(Nc2c(C#N)cnc3cc(-c4ccc(C=O)o4)ccc23)c(Cl)cc1Cl [Example 6, 4-(2,4-Dichloro-5-methoxyanilino)-7-(5-formyl-2-furyl)-3-quinolinecarbonitrile] |
| 168 to 169 | 2700 nM | N#Cc1cnc2cc(-c3ccc(CCN4CCOCC4)s3)ccc2c1Nc1ccc(Cl)cc1Cl [Example 9, 4-(2,4-Dichloroanilino)-7-{5-[2-(4-morpholinyl)ethyl]-2-thienyl}-3-quinoline-carbonitrile] |
| 182 to 184 | 900 nM | CCN1CCN(Cc2cc(-c3ccc4c(Nc5ccc(Cl)cc5Cl)c(C#N)cnc4c3)cs2)CC1 [Example 10, 4-(2,4-Dichloroanilino)-7-{5-[(4-ethyl-1-piperazinyl)methyl]-3-thienyl}-3-quinolinecarbonitrile] |
| 118 to 125 | 310 nM | N#Cc1cnc2cc(-c3cc(CN4CCOCC4)c(CN4CCOCC4)s3)ccc2c1Nc1ccc(Cl)cc1Cl [Example 17] |
|  | 160 nM | CCN1CCN(Cc2cc(-c3ccc4c(Nc5cc(OC)c(Cl)cc5Cl)c(C#N)cnc4c3)cs2)CC1 [Example 19, 4-(2,4-dichloro-5-methoxyanilino)-7-{5-[(4-ethyl-1-piperazinyl)methyl]-3-thienyl}-3-quinolinecarbonitrile] |
|  | 90 nM | COc1cc(Nc2c(C#N)cnc3cc(-c4ccc(CN5CCOCC5)s4)ccc23)c(Cl)cc1Cl [Example 23, 4-(2,4-Dichloro-5-methoxyanilino)-7-[5-(4-morpholinylmethyl)-2-thienyl]-3-quinolinecarbonitrile] |
|  | 180 nM | COc1cc(Nc2c(C#N)cnc3cc(-c4csc(CN5CCOCC5)c4)ccc23)c(Cl)cc1Cl [Example 24, 4-(2,4-Dichloro-5-methoxyanilino)-7-[5-(4-morpholinylmethyl)-3-thienyl]-3-quinolinecarbonitrile] |
|  | 1020 nM | COc1cc(Nc2c(C#N)cnc3cc(-c4ccc(CCN5CCOCC5)cc4)ccc23)c(Cl)cc1Cl [Example 27, 4-(2,4-Dichloro-5-methoxyanilino)-7-{4-[2-(4-morpholinyl)ethyl]phenyl}-3-quinolinecarbonitrile] |
|  | 4100 nM | COc1cc(Nc2c(C#N)cnc3cc(-c4cccc(CCN5CCOCC5)c4)ccc23)c(Cl)cc1Cl [Example 28, 4-(2,4-Dichloro-5-methoxyanilino)-7-{3-[2-(4-morpholinyl)ethyl]phenyl}-3-quinolinecarbonitrile] |
|  | 120 nM | COc1cc(Nc2c(C#N)cnc3cc(-c4cc(CN5CCOCC5)cs4)ccc23)c(Cl)cc1Cl [Example 68, 4-(2,4-Dichloro-5-methoxyanilino)-7-[4-(4-morpholinylmethyl)-2-thienyl]-3-quinolinecarbonitrile] |
|  | 140 nM | COc1cc(Nc2c(C#N)cnc3cc(-c4ccc(CN5CCCCC5)s4)ccc23)c(Cl)cc1Cl [Example 78, 4-(2,4-Dichloro-5-methoxyanilino)-7-[5-(1-piperidinylmethyl)-2-thienyl]-3-quinolinecarbonitrile] |
|  | 560 nM | COc1cc(Nc2c(C#N)cnc3cc(-c4ccc[nH]4)ccc23)c(Cl)cc1Cl [Example 104, 4-(2,4-Dichloro-5-methoxyanilino)-7-(1H-pyrrol-2-yl)-3-quinolinecarbonitrile] |
|  | 1400 nM | COc1cc(Nc2c(C#N)cnc3cc(-c4cccc(CN5CCN(C)CC5)c4)ccc23)c(Cl)cc1Cl [Example 113, 4-(2,4-dichloro-5-methoxyanilino)-7-{3-[(4-methyl-1-piperazinyl)methyl]phenyl}-3-quinolinecarbonitrile] |
|  | 170 nM | COc1cc(Nc2c(C#N)cnc3cc(-c4csc(CN5CCC(O)CC5)c4)ccc23)c(Cl)cc1Cl [Example 192, 4-(2,4-Dichloro-5-methoxyanilino)-7-{5-[(4-hydroxy-1-piperidinyl)methyl]-3-thienyl}-3-quinolinecarbonitrile] |
